Results taken from patent US8535736B2, “Methods and compositions for the treatment of infection or infectious colonization of the eyelid, ocular surface, skin or ear” (Advanced Vision Research, Inc, priority 2006, dated 2013).

Assays:
Pseudomonas aeruginosa = test: Kill-time test (exposure time, survivors, log and percent reduction in CFU); format: cell-based; conditions: Linalool 0.75% alone, at one minute
Method: (§1) The following experiments were performed with a number of topical preparations to test the efficacy of each preparation against both gram negative and gram positive bacteria. The data is presented in tables showing the organism which the preparation was tested against, the exposure time, the number of survivors, the log reduction and the percent reduction in CFUs (Colony Forming Units).
(§2) Experiments were performed with tea tree oil, manuka oil, alpha-terpineol, and linalool in the EyeCI vehicle. The EyeCL vehicle (Advanced Vision Research, Woburn, Mass.) and OcuSoft Lid Scrub Foaming Eyelid Cleanser (CYNACON/OCUSOFT, Rosenberg, Tex.) were tested as controls.

Staphylococcus aureus = test: as above; format: cell-based; conditions: at 1 minute
Method: as §1, §2

P. aeruginosa = conditions: disc diffusion and broth dilution methods; cited from earlier work

| Compound | log of Pseudomonas killing (Pseudomonas aeruginosa) | log reduction in S. aureus killing (Staphylococcus aureus; 0.75% linalool alone) [log] | log reduction in S. aureus (Staphylococcus aureus; 0.85% linalool) [log] | activity against P. aeruginosa (P. aeruginosa) |
| --- | --- | --- | --- | --- |
| C=CC(C)(O)CCC=C(C)C (centres unmarked) [linalool] | greater than 1 log | ~1 | > 1 | inactive |
| CC1=CCC(C(C)(C)O)CC1 (stereo not drawn) [alpha-terpineol] |  |  |  | inactive |
